According to ChEMBL document CHEMBL3044811, “Efficacy of grain protectants against four psocid species on maize, rice and wheat” (2009):
The source made the active and inactive calls. The calls are words filed in the database; no cut-off is given here.

Legend:
Liposcelis entomophila [1] = assay: Insecticidal activity against Liposcelis entomophila in compound pre-treated wheat grains assessed as mortality at 1 ppm after 14 days (reference value: 13.3 +/-4.7%); format: functional
Liposcelis entomophila [2] = assay: Insecticidal activity against Liposcelis entomophila in compound pre-treated rice grains assessed as mortality at 1 ppm after 14 days (reference value: 10.0 +/-4.7%); format: functional
Lepinotus reticulatus [3] = assay: Insecticidal activity against Lepinotus reticulatus in compound pre-treated maize grains assessed as mortality at 1 ppm after 7 days (reference value: 34.4 +/-11.4%); format: functional
Liposcelis paeta [4] = assay: Insecticidal activity against Liposcelis paeta in compound pre-treated rice grains assessed as mortality at 1 ppm after 14 days (reference value: 3.4 +/-1.6%); format: functional
Lepinotus reticulatus [5] = assay: Insecticidal activity against Lepinotus reticulatus in compound pre-treated wheat grains assessed as mortality at 1 ppm after 14 days (reference value: 21.1 +/-7.4%); format: functional
Liposcelis paeta [6] = assay: Insecticidal activity against Liposcelis paeta in compound pre-treated maize grains assessed as mortality at 1 ppm after 7 days (reference value: 13.3 +/-3.3%); format: functional
Liposcelis entomophila [7] = assay: Insecticidal activity against Liposcelis entomophila in compound pre-treated rice grains assessed as mortality at 1 ppm after 7 days (reference value: 3.3 +/-2.6%); format: functional
[8] = tested on: Liposcelis bostrychophila; assay: Insecticidal activity against Liposcelis bostrychophila (booklice) in compound pre-treated maize grains assessed as mortality at 1 ppm after 14 days (reference value: 13.5 +/-5.3%); format: functional
[9] = tested on: Liposcelis bostrychophila; assay: Insecticidal activity against Liposcelis bostrychophila (booklice) in compound pre-treated maize grains assessed as decrease in progeny production at 1 ppm after 30 days; format: functional, organism-based
Liposcelis paeta [10] = assay: Insecticidal activity against Liposcelis paeta in compound pre-treated maize grains assessed as effect on progeny production at 1 ppm after 30 days; format: functional, organism-based
Liposcelis entomophila [11] = assay: Insecticidal activity against Liposcelis entomophila in compound pre-treated wheat grains assessed as decrease in progeny production at 1 ppm after 30 days; format: functional, organism-based
Liposcelis paeta [12] = assay: Insecticidal activity against Liposcelis paeta in compound pre-treated wheat grains assessed as mortality at 1 ppm after 14 days (reference value: 5.6 +/-1.8%); format: functional
[13] = tested on: Liposcelis bostrychophila; assay: Insecticidal activity against Liposcelis bostrychophila (booklice) in compound pre-treated wheat grains assessed as effect on progeny production at 1 ppm after 30 days; format: functional, organism-based
[14] = tested on: Liposcelis bostrychophila; assay: Insecticidal activity against Liposcelis bostrychophila (booklice) in compound pre-treated wheat grains assessed as mortality at 1 ppm after 7 days (reference value: 3.3 +/-1.7%); format: functional
Lepinotus reticulatus [15] = assay: Insecticidal activity against Lepinotus reticulatus in compound pre-treated rice grains assessed as decrease in progeny production at 1 ppm after 30 days; format: functional, organism-based
[16] = tested on: Liposcelis bostrychophila; assay: Insecticidal activity against Liposcelis bostrychophila (booklice) in compound pre-treated maize grains assessed as mortality at 1 ppm after 7 days (reference value: 8.9 +/-2.6%); format: functional
[17] = tested on: Liposcelis bostrychophila; assay: Insecticidal activity against Liposcelis bostrychophila (booklice) in compound pre-treated wheat grains assessed as mortality at 1 ppm after 14 days (reference value: 6.8 +/-3.3%); format: functional
Liposcelis entomophila [18] = assay: Insecticidal activity against Liposcelis entomophila in compound pre-treated wheat grains assessed as mortality at 1 ppm after 7 days (reference value: 5.6 +/-2.9%); format: functional
Lepinotus reticulatus [19] = assay: Insecticidal activity against Lepinotus reticulatus in compound pre-treated wheat grains assessed as decrease in progeny production at 1 ppm after 30 days; format: functional, organism-based
Lepinotus reticulatus [20] = assay: Insecticidal activity against Lepinotus reticulatus in compound pre-treated maize grains assessed as decrease in progeny production at 1 ppm after 30 days; format: functional, organism-based
[21] = tested on: Liposcelis bostrychophila; assay: Insecticidal activity against Liposcelis bostrychophila (booklice) in compound pre-treated rice grains assessed as mortality at 1 ppm after 14 days (reference value: 9.7 +/-2.4%); format: functional
Lepinotus reticulatus [22] = assay: Insecticidal activity against Lepinotus reticulatus in compound pre-treated rice grains assessed as mortality at 1 ppm after 14 days (reference value: 15.5 +/-4.1%); format: functional
Lepinotus reticulatus [23] = assay: Insecticidal activity against Lepinotus reticulatus in compound pre-treated wheat grains assessed as mortality at 1 ppm after 7 days (reference value: 10.0 +/-5.3%); format: functional
Liposcelis paeta [24] = assay: Insecticidal activity against Liposcelis paeta in compound pre-treated wheat grains assessed as mortality at 1 ppm after 7 days (reference value: 7.8 +/-3.2%); format: functional
Liposcelis entomophila [25] = assay: Insecticidal activity against Liposcelis entomophila in compound pre-treated maize grains assessed as mortality at 1 ppm after 14 days (reference value: 14.4 +/-4.1%); format: functional
Lepinotus reticulatus [26] = assay: Insecticidal activity against Lepinotus reticulatus in compound pre-treated rice grains assessed as mortality at 1 ppm after 7 days (reference value: 6.8 +/-2.4%); format: functional
Lepinotus reticulatus [27] = assay: Insecticidal activity against Lepinotus reticulatus in compound pre-treated maize grains assessed as mortality at 1 ppm after 14 days (reference value: 61.1 +/-11.9%); format: functional
Liposcelis paeta [28] = assay: Insecticidal activity against Liposcelis paeta in compound pre-treated maize grains assessed as mortality at 1 ppm after 14 days (reference value: 14.1 +/-4.1%); format: functional
Liposcelis entomophila [29] = assay: Insecticidal activity against Liposcelis entomophila in compound pre-treated maize grains assessed as mortality at 1 ppm after 7 days (reference value: 15.6 +/-6.9%); format: functional
[30] = tested on: Liposcelis bostrychophila; assay: Insecticidal activity against Liposcelis bostrychophila (booklice) in compound pre-treated rice grains assessed as effect on progeny production at 1 ppm after 30 days; format: functional, organism-based
[31] = tested on: Liposcelis bostrychophila; assay: Insecticidal activity against Liposcelis bostrychophila (booklice) in compound pre-treated rice grains assessed as mortality at 1 ppm after 7 days (reference value: 8.9 +/-4.5%); format: functional
Liposcelis entomophila [32] = assay: Insecticidal activity against Liposcelis entomophila in compound pre-treated maize grains assessed as decrease in progeny production at 1 ppm after 30 days; format: functional, organism-based
Liposcelis paeta [33] = assay: Insecticidal activity against Liposcelis paeta in compound pre-treated rice grains assessed as mortality at 1 ppm after 7 days (reference value: 3.3 +/-1.7%); format: functional

## CC[C@H]1CCC[C@H](O[C@H]2CC[C@H](N(C)C)[C@@H](C)O2)[C@@H](C)C(=O)C2=C[C@@H]3[C@@H](C=C(C)[C@@H]4C[C@@H](O[C@@H]5O[C@@H](C)[C@H](OC)[C@@H](OC)[C@H]5OC)C[C@@H]34)[C@@H]2CC(=O)O1.CC[C@H]1CCC[C@H](O[C@H]2CC[C@H](N(C)C)[C@@H](C)O2)[C@@H](C)C(=O)C2=C[C@@H]3[C@@H](C=C[C@@H]4C[C@@H](O[C@@H]5O[C@@H](C)[C@H](OC)[C@@H](OC)[C@H]5OC)C[C@@H]34)[C@@H]2CC(=O)O1
Liposcelis entomophila [1]
  mortality at 1 ppm: 84.4%
Liposcelis entomophila [2]
  mortality at 1 ppm: 52.3%
Lepinotus reticulatus [3]
  mortality at 1 ppm: 94.5%
Liposcelis paeta [4]
  mortality at 1 ppm: 18.8%
Lepinotus reticulatus [5]
  mortality at 1 ppm: 96.7%
Liposcelis paeta [6]
  mortality at 1 ppm: 16.7%
Liposcelis entomophila [7]
  mortality at 1 ppm: 52.2%
[8]
  mortality at 1 ppm: 76.4%
[9]
  inhibition: Active
Liposcelis paeta [10]
  inhibition: inactive
Liposcelis entomophila [11]
  inhibition: Active
Liposcelis paeta [12]
  mortality at 1 ppm: 55.6%
[13]
  inhibition: inactive
[14]
  mortality at 1 ppm: 74.5%
Lepinotus reticulatus [15]
  inhibition: Active
[16]
  mortality at 1 ppm: 71.1%
[17]
  mortality at 1 ppm: 75.6%
Liposcelis entomophila [18]
  mortality at 1 ppm: 61.2%
Lepinotus reticulatus [19]
  inhibition: Active
Lepinotus reticulatus [20]
  inhibition: Active
[21]
  mortality at 1 ppm: 45.7%
Lepinotus reticulatus [22]
  mortality at 1 ppm: 71.1%
Lepinotus reticulatus [23]
  mortality at 1 ppm: 94.4%
Liposcelis paeta [24]
  mortality at 1 ppm: 46.7%
Liposcelis entomophila [25]
  mortality at 1 ppm: 98.9%
Lepinotus reticulatus [26]
  mortality at 1 ppm: 80%
Lepinotus reticulatus [27]
  mortality at 1 ppm: 100%
Liposcelis paeta [28]
  mortality at 1 ppm: 37.8%
Liposcelis entomophila [29]
  mortality at 1 ppm: 90%
[30]
  inhibition: inactive
[31]
  mortality at 1 ppm: 48.9%
Liposcelis entomophila [32]
  inhibition: Active
Liposcelis paeta [33]
  mortality at 1 ppm: 10%
